What was measured:
[1] = tested on: p53 activation in SJSA-1 osteosarcoma cell line; assay: Western blot analysis of p53 activation and PARP cleavage in SJSA-1 cells; assay type: cell-based, human; details: for full-length PARP (apoptosis induction) / p53 activation (accumulation of p53, MDM2 and p21): 24 h
[2] = tested on: p53 activation and apoptosis in SJSA-1 xenograft tumor tissues; assay: Pharmacodynamics study in SJSA-1 xenograft tumor tissues
SJSA-1 xenograft model = details: cited from earlier work; for tumor growth in SJSA-1 xenograft model: high oral doses (200–300 mg/kg) ref 8, 21
[3] = single oral dose 100 mg/kg, 24 h

## CC(C)(C)C[C@@H]1N[C@@H](C(=O)N[C@H]2C[C@@](C)(O)C2)[C@H](c2cccc(Cl)c2F)[C@]12C(=O)Nc1cc(Cl)ccc12 [Compound 9]
[1]
  times more potent than 2 in p53 activation: at least 3 times
  times more potent than Nutlin-3a in p53 activation: 10 times
[1]; Western blot
  full-length PARP (apoptosis induction): dose-dependently diminished
  p53 activation (accumulation of p53, MDM2 and p21): effectively and dose-dependently activate p53
  lowest concentration activating p53 (clear accumulation of p21 and p53): 30 nM
[2]; single oral dose 100 mg/kg, 1, 3 and 6 h
  cleavage of PARP and caspase-3 in tumor tissue: minimal
[2]; single oral dose 100 mg/kg, 3 h and 6 h
  p53, p21 and MDM2 protein levels in tumor tissue: robust upregulation
[2]; [3]
  cleavage of PARP and caspase-3 in tumor tissue: very clear
  p53, p21 and MDM2 protein levels in tumor tissue: significantly diminished

## COc1ccc(C2=N[C@@H](c3ccc(Cl)cc3)[C@@H](c3ccc(Cl)cc3)N2C(=O)N2CCNC(=O)C2)c(OC(C)C)c1 [Nutlin-3a, reference compound]
[1]; Western blot
  full-length PARP (apoptosis induction): dose-dependently diminished
  p53 activation (accumulation of p53, MDM2 and p21): effectively and dose-dependently activate p53

## CC(C)(C)C[C@H]1N[C@@H](C(=O)NCC[C@H](O)CO)[C@H](c2cccc(Cl)c2)[C@@]12C(=O)Nc1cc(Cl)c(F)cc12 [Compound 1]
SJSA-1 xenograft model
  complete tumor regression: failed to achieve complete tumor regression
  tumor growth in SJSA-1 xenograft model: inhibited tumor growth

## CC(C)(C)C[C@@H]1N[C@@H](C(=O)NCC[C@H](O)CO)[C@H](c2cccc(Cl)c2F)[C@]12C(=O)Nc1cc(Cl)ccc12 [Compound 2]
[1]; Western blot
  full-length PARP (apoptosis induction): dose-dependently diminished
  p53 activation (accumulation of p53, MDM2 and p21): effectively and dose-dependently activate p53
SJSA-1 xenograft model
  complete tumor regression: failed to achieve complete tumor regression
  tumor growth in SJSA-1 xenograft model: inhibited tumor growth
